Columns and labels:
[1] = Drug metabolism in mouse liver microsomes assessed as deaminated morpholine metabolite formation at 5 uM after 60 mins by UPLC-MS analysis; type: ADME, microsome; details: 1 h
[2] = Intrinsic clearance in human liver microsomes assessed per mg protein at 1 uM by UPLC-MS analysis; type: ADME, microsome; details: read-out: CLH
[3] = Cmax in humanized NOD.Cg-Prkdcscid Il2rgtm1Wjl/SzJ mouse infected with Plasmodium falciparum Pf3D70087/N9 at 50 mg/kg, po administered as single dose after 0.25 to 23 hrs by LC-MS/MS analysis; type: ADME, organism-based; design: dose 50 mg/kg, route oral; details: in vivo
[4] = Drug metabolism in mouse liver microsomes assessed as deaminated morpholine acid metabolite formation at 5 uM after 60 mins by UPLC-MS analysis; type: ADME, microsome; details: 1 h
Mus musculus [5] = experiment: Dose normalized AUC (0 to t) in humanized NOD.Cg-Prkdcscid Il2rgtm1Wjl/SzJ mouse infected with Plasmodium falciparum Pf3D70087/N9 at 50 mg/kg, po administered as single dose by LC-MS/MS analysis; type: ADME, organism-based; details: in vivo
[6] = Drug metabolism in human liver microsomes assessed as metabolite M+16 (III) formation at 5 uM after 60 mins by UPLC-MS analysis; type: ADME, microsome; details: 1 h
[7] = Drug metabolism in human liver microsomes assessed as deaminated morpholine acid metabolite formation at 5 uM after 60 mins by UPLC-MS analysis; type: ADME, microsome; details: 1 h
[8] = Drug metabolism in mouse liver microsomes at 5 uM after 60 mins by UPLC-MS analysis; type: ADME, microsome; details: read-out: Drug metabolism
[9] = Intrinsic clearance in rat liver microsomes assessed per mg protein at 5 uM by UPLC-MS analysis; type: ADME, microsome; details: read-out: CLH
[10] = Drug metabolism in rat liver microsomes assessed as mono-oxygenation and dehydrogenation metabolite formation at 5 uM after 60 mins by UPLC-MS analysis; type: ADME, microsome; details: 1 h
[11] = Drug metabolism in human liver microsomes assessed as ring dehydrogenated metabolite formation at 5 uM after 60 mins by UPLC-MS analysis; type: ADME, microsome; details: 1 h
[12] = Drug metabolism in mouse liver microsomes assessed as morpholine ring opened metabolite formation at 5 uM after 60 mins by UPLC-MS analysis; type: ADME, microsome; details: 1 h
[13] = Drug metabolism in human liver microsomes assessed as metabolite M+32 (II) formation at 5 uM after 60 mins by UPLC-MS analysis; type: ADME, microsome; details: 1 h
[14] = Intrinsic clearance in human liver microsomes assessed per mg protein at 5 uM by UPLC-MS analysis; type: ADME, microsome; details: read-out: CLH
Cytochrome P450 2C9 = Cytochrome P450 2C9 (Homo sapiens, UniProt P11712); experiment: Inhibition of CYP2C9 in human liver microsomes assessed as tolbutamide methylhydroxylation after 4 to 40 mins in presence of NADPH by LCMS analysis; type: ADME
Cytochrome P450 2C9, sequence (P11712 whole entry): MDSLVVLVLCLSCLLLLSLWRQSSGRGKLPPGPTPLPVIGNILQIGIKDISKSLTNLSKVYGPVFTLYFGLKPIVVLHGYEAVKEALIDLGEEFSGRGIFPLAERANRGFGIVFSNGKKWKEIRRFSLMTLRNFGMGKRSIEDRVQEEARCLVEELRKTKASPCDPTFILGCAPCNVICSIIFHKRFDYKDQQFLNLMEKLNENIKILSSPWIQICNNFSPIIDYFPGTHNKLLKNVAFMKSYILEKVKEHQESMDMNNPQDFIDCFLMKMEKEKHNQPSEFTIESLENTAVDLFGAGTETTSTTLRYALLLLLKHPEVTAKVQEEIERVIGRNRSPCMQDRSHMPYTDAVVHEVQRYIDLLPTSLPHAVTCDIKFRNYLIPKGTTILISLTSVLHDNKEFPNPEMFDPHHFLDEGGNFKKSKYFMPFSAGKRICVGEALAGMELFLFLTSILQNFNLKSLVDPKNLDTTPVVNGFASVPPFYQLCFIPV

[15] = Drug metabolism in human liver microsomes at 5 uM after 60 mins by UPLC-MS analysis; type: ADME, microsome; details: read-out: Drug metabolism
Cytochrome P450 2D6 = Cytochrome P450 2D6 (Homo sapiens, UniProt P10635); experiment: Inhibition of CYP2D6 in human liver microsomes assessed as dextromethorphan O-demethylation after 4 to 40 mins in presence of NADPH by LCMS analysis
Cytochrome P450 2D6, sequence (P10635 whole entry): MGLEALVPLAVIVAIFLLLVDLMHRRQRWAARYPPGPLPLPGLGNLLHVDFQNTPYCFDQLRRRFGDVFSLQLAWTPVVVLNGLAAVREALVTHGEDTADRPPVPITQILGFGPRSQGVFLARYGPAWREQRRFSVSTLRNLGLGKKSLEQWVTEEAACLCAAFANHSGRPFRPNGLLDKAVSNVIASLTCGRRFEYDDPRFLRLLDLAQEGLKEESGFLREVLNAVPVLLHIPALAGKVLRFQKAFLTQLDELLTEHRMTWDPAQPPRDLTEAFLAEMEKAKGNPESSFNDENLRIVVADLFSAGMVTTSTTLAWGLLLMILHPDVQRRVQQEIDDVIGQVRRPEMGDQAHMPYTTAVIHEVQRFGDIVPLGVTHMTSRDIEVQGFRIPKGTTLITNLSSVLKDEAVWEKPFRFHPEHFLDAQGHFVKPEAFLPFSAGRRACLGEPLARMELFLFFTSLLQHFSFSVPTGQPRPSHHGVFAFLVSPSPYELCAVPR

[16] = Drug metabolism in human liver microsomes assessed as metabolite M+16 (IV) formation at 5 uM after 60 mins by UPLC-MS analysis; type: ADME, microsome; details: 1 h
[17] = Drug metabolism in mouse liver microsomes assessed as mono-oxygenation and dehydrogenation metabolite formation at 5 uM after 60 mins by UPLC-MS analysis; type: ADME, microsome; details: 1 h
[18] = Drug metabolism in human liver microsomes assessed as metabolite M+16 (V) formation at 5 uM after 60 mins by UPLC-MS analysis; type: ADME, microsome; details: 1 h
[19] = Drug degradation in rat liver microsomes assessed as compound half life at 1 uM by UPLC-MS method; type: ADME, microsome
Mus musculus [20] = experiment: Dose normalized Cmax in humanized NOD.Cg-Prkdcscid Il2rgtm1Wjl/SzJ mouse infected with Plasmodium falciparum Pf3D70087/N9 at 50 mg/kg, po administered as single dose after 0.25 to 23 hrs by LC-MS/MS analysis; type: ADME, organism-based; details: in vivo
[21] = Oral bioavailability in Sprague-Dawley rat at 100 mg/kg administered via gavage by LC/MS analysis; type: ADME, organism-based; details: in vivo
[22] = Drug metabolism in mouse liver microsomes assessed as metabolite M+32 (III) formation at 5 uM after 60 mins by UPLC-MS analysis; type: ADME, microsome; details: 1 h
Plasmodium falciparum = experiment: Antimalarial activity against Plasmodium falciparum Pf3D70087/N9 infected in po dosed humanized NOD.Cg-Prkdcscid Il2rgtm1Wjl/SzJ mouse assessed as reduction in parasitemia administered as single dose measured on day 7 post infection by SYTO-16 dye-based flow cytometric analysis; type: functional; details: 168 h
[23] = Drug metabolism in human liver microsomes assessed as open morpholine ring metabolite formation at 5 uM after 60 mins by UPLC-MS analysis; type: ADME, microsome; details: 1 h
Mus musculus [24] = experiment: Dose normalized Cmax in humanized NOD.Cg-Prkdcscid Il2rgtm1Wjl/SzJ mouse infected with Plasmodium falciparum Pf3D70087/N9 at 100 mg/kg, po administered as single dose after 0.25 to 23 hrs by LC-MS/MS analysis; type: ADME, organism-based; details: in vivo
[25] = Tmax in humanized NOD.Cg-Prkdcscid Il2rgtm1Wjl/SzJ mouse infected with Plasmodium falciparum Pf3D70087/N9 at 30 mg/kg, po administered as single dose by LC-MS/MS analysis; type: ADME, organism-based; details: in vivo
[26] = Drug metabolism in mouse liver microsomes assessed as metabolite M-10(II) formation at 5 uM after 60 mins by UPLC-MS analysis; type: ADME, microsome; details: 1 h
[27] = AUC (0 to t) in humanized NOD.Cg-Prkdcscid Il2rgtm1Wjl/SzJ mouse infected with Plasmodium falciparum Pf3D70087/N9 at 100 mg/kg, po administered as single dose by LC-MS/MS analysis; type: ADME, organism-based; details: in vivo
[28] = Drug metabolism in mouse liver microsomes assessed as ring dehydrogenated metabolite formation at 5 uM after 60 mins by UPLC-MS analysis; type: ADME, microsome; details: 1 h
[29] = Drug metabolism in mouse liver microsomes assessed as morpholine dealkylated metabolite formation at 5 uM after 60 mins by UPLC-MS analysis; type: ADME, microsome; details: 1 h
[30] = Intrinsic clearance in mouse liver microsomes assessed per mg protein at 1 uM by UPLC-MS analysis; type: ADME, microsome; details: read-out: CLH
[31] = Metabolic stability in human blood after 2 to 4 hrs by LC-MS method; type: ADME, tissue-based
[32] = Drug degradation in human liver microsomes assessed as compound half life at 1 uM by UPLC-MS method; type: ADME, microsome
[33] = Cmax in humanized NOD.Cg-Prkdcscid Il2rgtm1Wjl/SzJ mouse infected with Plasmodium falciparum Pf3D70087/N9 at 30 mg/kg, po administered as single dose after 0.25 to 23 hrs by LC-MS/MS analysis; type: ADME, organism-based; design: dose 30 mg/kg, route oral; details: in vivo
[34] = Tmax in humanized NOD.Cg-Prkdcscid Il2rgtm1Wjl/SzJ mouse infected with Plasmodium falciparum Pf3D70087/N9 at 100 mg/kg, po administered as single dose by LC-MS/MS analysis; type: ADME, organism-based; details: in vivo
Plasmodium berghei = experiment: Antimalarial activity against Plasmodium berghei infected in mouse assessed as mouse mean survival days at 30 mg/kg, po administered as single dose; type: functional
[35] = Cmax in humanized NOD.Cg-Prkdcscid Il2rgtm1Wjl/SzJ mouse infected with Plasmodium falciparum Pf3D70087/N9 at 100 mg/kg, po administered as single dose after 0.25 to 23 hrs by LC-MS/MS analysis; type: ADME, organism-based; design: dose 100 mg/kg, route oral; details: in vivo

c1cc(C2CCC3(CC2)OOC2(OO3)C3CC4CC(C3)CC2C4)ccc1CN1CCOCC1 (centres undefined)
Drug metabolism [1]: Metabolite_Notdetected | microsomal CLint at 1 µM [2]: 51 µL/min/mg | Cmax [3]: 0.607 µg/mL | Drug metabolism [4]: Metabolite_Notdetected | AUCt/dose (Mus musculus [5]): 0.0599 µg·h/mL/mg/kg | Drug metabolism [6]: Metabolite_Notdetected | Drug metabolism [7]: Metabolite_Notdetected | metabolised at 1 h, 5 µM [8]: 39% | microsomal CLint at 5 µM [9]: 89 µL/min/mg | Drug metabolism [10]: Metabolite_Notdetected | Drug metabolism [11]: Metabolite_Notdetected | Drug metabolism [12]: Metabolite_Notdetected | Drug metabolism [13]: Metabolite_Notdetected | microsomal CLint at 5 µM [14]: 41 µL/min/mg | IC50 (Cytochrome P450 2C9): > 20 µM | metabolised at 1 h, 5 µM [15]: 63% | IC50 (Cytochrome P450 2D6): > 20 µM | Drug metabolism [16]: Metabolite_Notdetected | Drug metabolism [17]: Metabolite_Notdetected | Drug metabolism [18]: Metabolite_Detected | half-life at 1 µM [19]: 15 min | Cmax/dose (Mus musculus [20]): 0.0121 µg/mL/mg/kg | bioavailability [21]: 52% | Drug metabolism [22]: Metabolite_Notdetected | ED90 (Plasmodium falciparum): 8.6 mg/kg | Drug metabolism [23]: Metabolite_Notdetected | Cmax/dose (Mus musculus [24]): 0.0025 µg/mL/mg/kg | Tmax [25]: 60 min | Drug metabolism [26]: Metabolite_Detected | AUC(0-t) [27]: 2.32 µg·h/mL | Drug metabolism [28]: Metabolite_Notdetected | Drug metabolism [29]: Metabolite_Notdetected | microsomal CLint at 1 µM [30]: 37 µL/min/mg | Stability [31]: Stable | half-life at 1 µM [32]: 34 min | Cmax [33]: 0.148 µg/mL | Tmax [34]: 30 min | MSD (Plasmodium berghei): 26.3 days | Cmax [35]: 0.25 µg/mL

Reference: ChEMBL document CHEMBL4118195, “Synthesis and profiling of benzylmorpholine 1,2,4,5-tetraoxane analogue N205: Towards tetraoxane scaffolds with potential for single dose cure of malaria” (Bioorg Med Chem, 2018)
